Assay in all cases: NCI anticancer screen, dose series, 48 h
Assay [1] concerns 786-0.
Assay [2] relates to HOP-62.
The subject of assay [3] is BT-549.
In assay [4] the test system is ACHN.
Assay [5] deals with LOX IMVI.
Assay [6] relates to SK-MEL-5.
The test system of assay [7] is HT-29.
Assay [8] relates to SK-MEL-2.
Assay [9] relates to COLO 205.
The test system of assay [10] is PC-3.
The subject of assay [11] is MOLT-4.
The subject of assay [12] is EKVX.
Assay [13] has as its system SF-268.
In assay [14] the test system is SW-620.
Assay [15] concerns OVCAR-4.
In assay [16] the test system is SN12C.
Assay [17] has as its system CAKI-1.
The subject of assay [18] is U-251.
In assay [19] the test system is KM12.
Assay [20] relates to NCI-H23.

The structures appear in SMILES notation.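 Cultured in 96-well plates, cells were exposed to test compound for 48 hours across five concentrations. GI50 is the concentration that inhibits growth by half.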 Activity calls are given as the source filed them. No stated cut-off is given here; in the data, active = GI50 up to about 1.1 µM and inactive = higher. Where a SMILES comes first, the peptide text is derived from it. The star is where a group is joined. Cbz = O=C(OCc1ccccc1)*; Bn = c1ccc(C*)cc1

Experimental findings from ChEMBL document CHEMBL1201862, “PubChem BioAssay data set” (2004) are described below.

Turning to `CC(C)(C)c1cc(C(=O)/C=C/c2ccc(C(=O)O)cc2)cc(C(C)(C)C)c1`, the GI50 in assay [1] was 4.09 µM (inactive); in [2] it was 2.32 µM (inactive); in assay [3] it was 2.21 µM (inactive); in assay [4], 4 µM (inactive); in assay [5], 3.2 µM (inactive); in assay [6] it was 3.99 µM (inactive). In addition, the GI50 was 3.05 µM (inactive) in assay [7]; 2.94 µM (inactive) in assay [8]; 2.12 µM (inactive) in assay [9]; 4.48 µM (inactive) in [10]; 2.37 µM (inactive) in assay [11]; 3.19 µM (inactive) in assay [12]. Further, the GI50 in assay [13] was 2.18 µM (inactive); in [14], 3.42 µM (inactive); in assay [15], 6.14 µM (inactive); in assay [16], 2.11 µM (inactive); in assay [17], 3.86 µM (inactive); in assay [18], 3.13 µM (inactive). Also, the GI50 in assay [19] is 2.4 µM (inactive).
In the case of `BrCC[N+]12CCCN1CCC2`, the GI50 in assay [1] was 9.06 µM (inactive); in [2], > 47.3 µM (inactive); in assay [3] it was 14.4 µM (inactive); in assay [4], 7.26 µM (inactive); in assay [5], 11.5 µM (inactive); in assay [6], 18 µM (inactive). In addition, the GI50 in [7] was 10.8 µM (inactive); in assay [20], 18.5 µM (inactive); in assay [8] it was 20.5 µM (inactive); in assay [9], 4.14 µM (inactive); in assay [10], 17.1 µM (inactive); in assay [11], 3.43 µM (inactive). Besides, the GI50 was 21.6 µM (inactive) in [12]; 24.9 µM (inactive) in [13]; 2.28 µM (inactive) in assay [14]; 4.23 µM (inactive) in assay [15]; 14.7 µM (inactive) in assay [16]; 1.03 µM (active) in assay [17]. Moreover, the GI50 in assay [18] was 16.5 µM (inactive); in assay [19], > 67.3 µM (inactive).
For the molecule `Nc1c2c(=O)[nH]c(=O)c2c(N)c2c(=O)c3ccccc3c(=O)c12`, the GI50 in [1] is 2.69 µM (inactive); in assay [2] it was 3.13 µM (inactive); in assay [3] it was 1.99 µM (inactive); in assay [4], 2.24 µM (inactive); in [5], 1.23 µM (inactive); in assay [6], 0.179 µM (active). For the same molecule, the GI50 was 0.977 µM (active) in assay [7]; 0.76 µM (active) in assay [20]; 2.07 µM (inactive) in assay [8]; 0.687 µM (active) in [9]; 2.49 µM (inactive) in assay [10]; 3.68 µM (inactive) in assay [11]. Further, the GI50 in assay [12] is 3.17 µM (inactive); in assay [13] it was 2.65 µM (inactive); in [14], 1.69 µM (inactive); in [15] it was 1.21 µM (inactive); in [16], 1.52 µM (inactive); in [17], 3.5 µM (inactive). The GI50 in [18] was 3.61 µM (inactive); in assay [19], 1.83 µM (inactive).
As to `CCCCN(CC)c1nc(C)nc2c1c(C)c(C)n2-c1c(C)cc(C)cc1C` [ANTALARMIN], the GI50 in [1] was 16.5 µM (inactive); in assay [2], 17.2 µM (inactive); in assay [3] it was 19.7 µM (inactive); in assay [4], 14.9 µM (inactive); in [5] it was 15.6 µM (inactive); in [6] it was 5.21 µM (inactive). The GI50 in assay [7] was 10.5 µM (inactive); in assay [20], 14.5 µM (inactive); in [8], 12.9 µM (inactive); in [9], 15.6 µM (inactive); in [10], 13.5 µM (inactive); in assay [11], 10.9 µM (inactive). The GI50 is 14.2 µM (inactive) in assay [12]; 17.4 µM (inactive) in assay [13]; 15.7 µM (inactive) in [14]; 16.3 µM (inactive) in assay [15]; 22 µM (inactive) in [16]; 13.9 µM (inactive) in [17]. Besides, the GI50 in [18] was 11.7 µM (inactive); in [19], 17.6 µM (inactive).
Take `Cn1c(-c2cccc(N)c2)[n+](C)c2ccccc21`: the GI50 was > 100 µM (inactive) in assay [1]; > 100 µM (inactive) in assay [2]; > 100 µM (inactive) in assay [3]; > 100 µM (inactive) in assay [4]; > 100 µM (inactive) in assay [5]; 57.3 µM (inactive) in [6]. Also, the GI50 in [7] was > 100 µM (inactive); in assay [20], 48.3 µM (inactive); in assay [8] it was > 100 µM (inactive); in assay [9], 38.7 µM (inactive); in [10], > 100 µM (inactive); in [11], > 100 µM (inactive). The GI50 in assay [12] was > 100 µM (inactive); in [13], > 100 µM (inactive); in assay [14] it was > 100 µM (inactive); in assay [15] it was > 100 µM (inactive); in [17], > 100 µM (inactive); in [18], > 10 µM (inactive). Also, the GI50 in assay [19] is > 100 µM (inactive).
As for `COc1cc(C2c3cc(OC)c(OC)c(O)c3C(=O)C3CCC(=O)N32)cc(OC)c1OC` (stereo not drawn), the GI50 in [1] was > 100 µM (inactive); in assay [2] it was > 100 µM (inactive); in assay [3], 25.2 µM (inactive); in [4] it was > 100 µM (inactive); in assay [5] it was 40.8 µM (inactive); in assay [6], 53.1 µM (inactive). Moreover, the GI50 was 70 µM (inactive) in assay [7]; > 100 µM (inactive) in assay [8]; 24.8 µM (inactive) in [9]; > 100 µM (inactive) in assay [10]; 25.6 µM (inactive) in [11]; > 100 µM (inactive) in [12]. For the same molecule, the GI50 is 69.8 µM (inactive) in [13]; 35.6 µM (inactive) in assay [14]; > 100 µM (inactive) in assay [15]; > 100 µM (inactive) in assay [16]; > 100 µM (inactive) in assay [17]; 86.7 µM (inactive) in assay [18]. Also, in [19], the GI50 was 48.2 µM (inactive).
`COC(=O)C(Cc1ccc(O)cc1)NC(=O)C(COCc1ccccc1)NC(=O)OCc1ccccc1` (stereo not drawn) (Cbz-Ser(Bn)-Tyr-OMe; configuration not given here): the GI50 was 19 µM (inactive) in assay [2]; 72.3 µM (inactive) in assay [3]; 17.4 µM (inactive) in [4]; 22.2 µM (inactive) in assay [5]; 17 µM (inactive) in assay [6]; 15.1 µM (inactive) in [7]. For the same molecule, the GI50 in [20] is 20.1 µM (inactive); in [8] it was 23 µM (inactive); in [9], 17.1 µM (inactive); in assay [10] it was 19.1 µM (inactive); in assay [11], > 100 µM (inactive); in [12], 22.5 µM (inactive). Moreover, the GI50 in assay [13] is 17.5 µM (inactive); in assay [14], 18.8 µM (inactive); in assay [15], 19.4 µM (inactive); in assay [16], 18.4 µM (inactive); in assay [17], 20.2 µM (inactive); in assay [18] it was 18.7 µM (inactive). For the same molecule, in assay [19], the GI50 is 19.8 µM (inactive).
`COCCOc1nc(-c2ccccc2)nc2ccccc12`: the GI50 was 22.1 µM (inactive) in assay [2]; 35.9 µM (inactive) in assay [3]; 44.1 µM (inactive) in [4]; 47.8 µM (inactive) in [5]; 25.8 µM (inactive) in assay [6]; 29.6 µM (inactive) in [7]. For the same molecule, the GI50 in [20] is 61.8 µM (inactive); in [8], 51.8 µM (inactive); in assay [9], 32.6 µM (inactive); in [10], 34.5 µM (inactive); in assay [11], 20.6 µM (inactive); in [12] it was 55.8 µM (inactive). Further, the GI50 was 27.7 µM (inactive) in [13]; 34 µM (inactive) in [14]; 37.3 µM (inactive) in assay [15]; 27.5 µM (inactive) in assay [16]; 34.7 µM (inactive) in [17]; 45.8 µM (inactive) in assay [18]. Further, the GI50 in assay [19] was 30 µM (inactive).
Consider `OC1CSCCSCCCSCCSC1`, for which the GI50 in assay [1], in assay [2], in [3], in [4], in assay [5] and in assay [6] was > 100 µM (inactive) each time. The GI50 in assay [7], in assay [20], in assay [8], in assay [9], in assay [10] and in [11] was > 100 µM (inactive) in each case. The GI50 in [12], in assay [13], in assay [14], in assay [15], in assay [16] and in assay [17] was > 100 µM (inactive) throughout. Moreover, the GI50 in assay [18] is > 100 µM (inactive).
`CC1(C)C[C@H]2C=C(C=O)[C@]34C[C@]3(C(=O)OC4O)[C@H]2C1` (stereo partly drawn): the GI50 in assay [2] was 14.2 µM (inactive); in assay [3], 1.97 µM (inactive); in [4] it was 1.53 µM (inactive); in [5], 1.24 µM (inactive); in assay [6] it was 1.63 µM (inactive); in assay [7], 1.87 µM (inactive). The GI50 in assay [20] was 1.66 µM (inactive); in assay [8], 1.72 µM (inactive); in assay [9] it was 0.374 µM (active); in assay [10], 2.84 µM (inactive); in assay [11], 1.53 µM (inactive); in assay [12], 1.61 µM (inactive). Besides, the GI50 in assay [13] was 1.61 µM (inactive); in assay [14], 3.92 µM (inactive); in assay [15], 2.55 µM (inactive); in assay [16] it was 3.86 µM (inactive); in assay [17], 1.59 µM (inactive); in [18], 8.77 µM (inactive). The GI50 in assay [19] is 1.94 µM (inactive).
